≈ marks a conversion by molar mass, not a printed value. Where two headings read alike, the source gives them in different places.
Assays:
Test in all cases: MIC, microdilution broth method
MSSA9144 = assay type: cell-based, Staphylococcus aureus; details: MSSA9144; in µg/mL
EMRSA16 = assay type: cell-based, Staphylococcus aureus
EMRSA15 = assay type: cell-based, Staphylococcus aureus
VRE12201 = assay type: cell-based, Enterococcus faecalis; details: VRE12201; in µg/mL
VSE775 = assay type: cell-based, Enterococcus faecalis; details: VSE775; in µg/mL
VRE12204 = assay type: cell-based, Enterococcus faecium; details: VRE12204; in µg/mL
M6 = assay type: cell-based; details: M6, in µg/mL
Ab17978 = assay type: cell-based; details: Ab17978, in µg/mL
PA01 = assay type: cell-based, Pseudomonas aeruginosa; details: PA01, in µg/mL

| Structure (SMILES) | MIC (MSSA9144) | MIC (EMRSA16; EMRSA16, in µg/mL) | MIC (EMRSA15; EMRSA15, in µg/mL) | MIC (VRE12201) | MIC (VSE775) | MIC (VRE12204) | MIC (M6; Normal (no PMBN)) | MIC (Ab17978; Normal (no PMBN)) | also measured |
| --- | --- | --- | --- | --- | --- | --- | --- | --- | --- |
| O=C(O)c1cn(C2CC2)c2cc(N3CCN(Cc4ccc(I)cc4)CC3)c(F)cc2c1=O | 0.12-0.25 | 4 | 4 | 1-2 | 2 | 4 | – | – | – |
| CCn1cc(C(=O)O)c(=O)c2cc(F)c(N3CCN(Cc4ccc(-n5cccn5)cc4)CC3)cc21 [Compound 3.30, 7-(4-(4-(1H-pyrazol-1-yl)benzyl)piperazin-1-yl)-1-ethyl-6-fluoro oxo-1-4-dihydroquinoline-3-carboxylic acid] | 0.5 | 32 | 16-32 | 4-8 | 8 | 16 | – | – | – |
| CCn1cc(C(=O)O)c(=O)c2cc(F)c(N3CCN(Cc4ccc(-n5cncn5)cc4)CC3)cc21 [Compound 3.32, 7-(4-(4-(1H-1,2,4-triazol-1-yl)benzyl)piperazin-1-yl)-1-ethyl-6-fluoro-4-oxo-1,4-dihydroquinoline-3-carboxylic acid] | 1 | – | – | 8 | 8 | 16 | – | – | – |
| CCn1cc(C(=O)O)c(=O)c2cc(F)c(N3CCNCC3)nc21 [Enoxacin, enoxacin, reference compound] | 2 | – | – | 8 | 16 | 4-8 | – | – | – |
| C[C@H]1COc2c(N3CC[C@@H](N)C3)c(F)cc3c(=O)c(C(=O)O)cn1c23 [KSN-L44] | – | – | – | – | – | – | – | – | MIC, EMRSA16 (EMRSA16; EMRSA16 (Table 16, role of the terminal pyrimidine ring), in µg/mL): 32; MIC, EMRSA15 (EMRSA15; EMRSA15 (Table 16, role of the terminal pyrimidine ring), in µg/mL): 32 |
| CCn1cc(C(=O)O)c(=O)c2cc(F)c(N3CCN(Cc4cccc5ccccc45)CC3)nc21 [ML-77-025] | 0.5-1 | 2-4 | 2-8 | 8 | 16 | 4 | – | – | fold reduction (potentiation) in MIC compared to the parent fluoroquinolone (EMRSA16; EMRSA-16): 64-128 fold; fold reduction (potentiation) in MIC compared to the parent fluoroquinolone (EMRSA15; EMRSA-15): 64-128 fold |
| O=C(O)c1cn(C2CC2)c2cc(N3CCN(Cc4ccc(F)c5ccccc45)CC3)c(F)cc2c1=O [ML-77-048] | 4 | 8 | 4 | 8 | 8 | – | 64 | 8 | – |
| O=C(O)c1cn(C2CC2)c2cc(N3CCN(Cc4cc(=O)[nH]c5ccccc45)CC3)c(F)cc2c1=O [ML-77-058] | 0.25-1 | – | – | 0.5-4 | – | – | 4-32 | – | – |
| CCn1cc(C(=O)O)c(=O)c2cc(F)c(N3CCN(Cc4cccc5c4CCCC5)CC3)cc21 [ML-77-077] | 1 | 2 | 2 | 2 | 2 | 1-2 | 64 | 32-128 | – |
| CCn1cc(C(=O)O)c(=O)c2cc(F)c(N3CCN(Cc4cccc5ccsc45)CC3)cc21 [ML-77-079] | 0.25 | 2 | 2 | 0.5-2 | 4 | 1-2 | 32 | – | – |
| O=C(O)c1cn(C2CC2)c2cc(N3CCN(Cc4ccc(S(=O)(=O)NCCc5c[nH]c6ccccc56)cc4)CC3)c(F)cc2c1=O [ML-77-138] | 0.25-0.5 | – | – | – | – | – | – | 64 | MIC (M6; +PMBN): 1; MIC (Ab17978; +PMBN): 1; MIC (PA01; +PMBN): ≤0.12 |
| O=C(O)c1cn(C2CC2)c2cc(N3CCN(Cc4ccc(-c5csnn5)cc4)CC3)c(F)cc2c1=O [ML-77-157] | <0.12 | 8 | 4 | 0.5 | 0.5 | 4-8 | 1 | 0.25-0.5 | – |
| O=C(O)c1cn(C2CC2)c2cc(N3CCN(c4cccc5ccccc45)CC3)c(F)cc2c1=O [ML-77-168] | 1 | 1 | 1-2 | 0.25-0.5 | 2 | 1 | – | – | – |
| CCn1cc(C(=O)O)c(=O)c2cc(F)c(N3CCN(c4cccc5ccccc45)CC3)cc21 [ML-77-169, 1-ethyl-6-fluoro-7-(4-(naphthalen-1-yl)piperazin-1-yl)-4-oxo-1,4-dihydroquinoline-3-carboxylic acid] | 2 | 1 | 1-2 | 2 | 2 | 1 | – | – | – |
| O=C(O)c1cn(C2CC2)c2cc(N3CCN(CCc4cccc5ccccc45)CC3)c(F)cc2c1=O [ML-77-171] | 0.5 | 4 | 2-4 | 2 | 4 | 4 | – | – | – |
| CCn1cc(C(=O)O)c(=O)c2cc(F)c(N3CCN(CCc4cccc5ccccc45)CC3)cc21 [ML-77-173, 1-ethyl-6-fluoro-7-(4-(2-(naphthalen-1-yl)ethyl)piperazin-1-yl)-4-oxo-1,4-dihydroquinoline-3-carboxylic acid] | 2-4 | 4 | 4 | 4-8 | 4-8 | 4 | – | – | – |
| C[C@H]1COc2c(N3CCCN(c4ncc(F)cn4)CC3)c(F)cc3c(=O)c(C(=O)O)cn1c23 [ML-83-034] | – | – | – | – | – | – | – | – | MIC (EMRSA16; Staphylococcus aureus (EMRSA16), Table 12, read-out: MIC): 16 µg/mL (≈ 35 µM); MIC (EMRSA15; Staphylococcus aureus, Staphylococcus aureus (EMRSA15), Table 12, read-out: MIC): 8 µg/mL (≈ 17.5 µM) |

Second part, led by results:

| MIC (MSSA9144) | MIC (EMRSA16; EMRSA16, in µg/mL) | MIC (EMRSA15; EMRSA15, in µg/mL) | MIC (VRE12201) | MIC (VSE775) | MIC (VRE12204) | Structure (SMILES) | MIC (M6; Normal (no PMBN)) | MIC (Ab17978; Normal (no PMBN)) | also measured |
| --- | --- | --- | --- | --- | --- | --- | --- | --- | --- |
| 0.12 | 16 | 16-32 | 0.5 | 1 | 8 | O=C(O)c1cn(C2CC2)c2cc(N3CCN(Cc4ccc(-n5cncn5)cc4)CC3)c(F)cc2c1=O [Compound 2.36, 7-(4-(4-(1H-1,2,4-triazol-1-yl)benzyl)piperazin-1-yl)-1-cyclopropyl-6-fluoro-4-oxo-1,4-dihydroquinoline-3-carboxylic acid] | – | – | – |
| 0.25 | 32 | 16-32 | 4 | 8 | 8 | CCn1cc(C(=O)O)c(=O)c2cc(F)c(N3CCN(Cc4ccc(-c5noc(C)n5)cc4)CC3)cc21 [Compound 3.36, 1-ethyl-6-fluoro-7-(4-(4-(5-methyl-1,2,4-oxadiazol-3-yl)-benzyl)piperazin-1-yl)-4-oxo-1,4-dihydroquinone-3-carboxylic acid] | – | – | – |
| 0.12 | 2 | 2 | 0.5 | 0.5-2 | 2 | O=C(O)c1cn(C2CC2)c2cc(N3CCN(Cc4ccc5ccccc5c4)CC3)c(F)cc2c1=O [ML-77-036] | 4-32 | 8 | – |
| 0.5 | – | 64 | 2 | 4 | – | O=C(O)c1cn(C2CC2)c2cc(N3CCN(Cc4cccc5cccnc45)CC3)c(F)cc2c1=O [ML-77-052] | 4 | 0.25 | – |
| 0.25 | 1-2 | 1 | 1-2 | 2 | 1-2 | O=C(O)c1cn(C2CC2)c2cc(N3CCN(Cc4cccc5c4CCCC5)CC3)c(F)cc2c1=O [ML-77-076] | 8 | – | – |
| <0.12 | 2 | 2 | 0.5 | 2-4 | 1-2 | O=C(O)c1cn(C2CC2)c2cc(N3CCN(Cc4cccc5ccsc45)CC3)c(F)cc2c1=O [ML-77-078] | 32 | 4-8 | – |
| 2 | 4 | 2 | 4 | 2 | 2 | CCn1cc(C(=O)O)c(=O)c2cc(F)c(N3CCN(Cc4ccc(-c5ccccc5)cc4)CC3)cc21 [ML-77-134, 7-(4-([1,1′-biphenyl]-4-ylmethyl)piperazin-1-yl)-1-ethyl-6-fluoro-4-oxo-1,4-dihydroquinoline-3-carboxylic acid] | 64 | – | – |
| 0.125-1 | 2-4 | 4 | 0.5-1 | 1-2 | 1-2 | C[C@H]1COc2c(N3CCN(Cc4cccc5ccccc45)CC3)c(F)cc3c(=O)c(C(=O)O)cn1c23 [ML-77-140, (S)-9-fluoro-3-methyl-10-(4-(naphthalen-1-ylmethyl)piperazin-1-yl)-7-oxo-2,3-dihydro-7H-[1,4]oxazino[2,3,4-ij]quinoline-6-carboxylic acid] | – | – | – |
| 0.5-1 | 4-8 | 4-8 | 8 | 8 | 4-8 | CCn1cc(C(=O)O)c(=O)c2cc(F)c(N3CCN(Cc4cc(C)cc(C)c4)CC3)cc21 [ML-77-150, 7-(4-(3,5-dimethylbenzyl)piperazin-1-yl)-1-ethyl-6-fluoro-4-oxo-1,4-dihydroquinoline-3-carboxylic acid] | 32-64 | 16 | – |
| ≤0.12 | 32 | – | 1 | 1-2 | – | Cc1nc(-c2ccc(CN3CCN(c4cc5c(cc4F)c(=O)c(C(=O)O)cn5C4CC4)CC3)cc2)no1 [ML-77-163] | 2 | 0.5-1 | MIC (PA01; Normal (no PMBN)): 32 |
